Laboratory results reported in paper PMC11984419, “Differential senolytic inhibition of normal versus Aβ-associated cholinesterases: implications in aging and Alzheimer’s disease” (Aging (Albany NY), 2025).
pKi: −log10 of the molar value. Where a name gives a salt, the structure may show the parent alone. Read-outs that look alike come from different tables or passages of the source.

Legend:
recombinant human AChE = target: T1, recombinant human AChE (Homo sapiens, UniProt P22303); experiment: Enzyme kinetic study (Ellman's assay, Lineweaver-Burk) with AChE; format: biochemical; settings: for AChE mode of inhibition: from Lineweaver-Burk plots
T1 construct: purchased MilliporeSigma Canada Ltd. (Oakville, Ontario, Canada)
Experimental: (§1) Enzyme kinetic studies were performed as previously described, using Ellman’s assay. Briefly, in a quartz cuvette (1 cm pathlength), a 0.577 mM DTNB solution in 0.1 M potassium phosphate buffer (1.6 mL, pH 7.0) was combined at room temperature with either recombinant AChE (0.1 mL, 3.7 nM) in 0.005% aqueous gelatin or purified human serum BChE (0.1 mL, 5.85 nM) in 0.005% aqueous gelatin and mixed with a senolytic or nootropic compound (Figure 1) dissolved in 50% (v/v) aqueous acetonitrile (0.05 mL). […] Substrate concentrations were kept constant while the senolytic concentrations varied (0-140 μM). Changes in absorbance (ΔA/min), reflecting the rate of ATChI or BTChI hydrolysis with their respective enzymes, were recorded spectrophotometrically every 5 seconds for 1 minute.
(§2) As done previously, Lineweaver-Burk plots were generated for each senolytic and nootropic compound with the velocity (v) of each reaction determined using Beer’s Law, where v = (ΔA/min)/(εl), ε is the molar extinction coefficient for 5-thio-2-nitrobenzoic acid (TNB) (13600 M^−1 cm^−1), and l is the cuvette pathlength (1 cm). Replotting the calculated slopes from each double reciprocal plot against senolytic and nootropic concentrations, gave the inhibitor constant (Ki, M) as the x-intercept. The mode of inhibition (competitive, non-competitive, mixed non-competitive, or uncompetitive) was also determined by analyzing the relational pattern of linear regressions for varying concentrations of the same senolytic or nootropic compound. Enzyme kinetic experiments were performed in triplicate and kinetic parameter values were averaged.

[1] = target: T2, BChE purified from human plasma (Homo sapiens, UniProt P06276); experiment: Enzyme kinetic study (Ellman's assay, Lineweaver-Burk) with BChE; format: biochemical; settings: for BChE mode of inhibition: from Lineweaver-Burk plots
T2 construct: BChE purified from human plasma was a gift from Dr. Oksana Lockridge; tissue gift from Dr. Oksana Lockridge (Eppley Institute, University of Nebraska Medical Center); host or cells: human plasma
Experimental: as §1, §2

BChE = settings: read-out: Literature BChE Ki values, cited from earlier work
[2] = target: T3, AChE associated with β-amyloid plaques (Homo sapiens, UniProt P22303); experiment: Karnovsky-Roots histochemical staining, AChE associated with plaques (pH 6.8); format: biochemical; settings: for Inhibition of AChE staining associated with plaques (in words): pH 6.8, compared with control staining; for Inhibition of staining, AChE pH 6.8: plaques, AD orbitofrontal cortex, average ranking of four AD cases, compound 0.25-1.3 mM in KR solution
T3 construct: post-mortem brain tissues from sex- and age-matched AD cases; tissue Maritime Brain Tissue Bank, Dalhousie University; host or cells: post-mortem human AD brain: orbitofrontal cortex (plaques, pH 6.8) and thalamus (normal neural elements, pH 8.0)
Experimental: (§3) Histochemical staining for AChE and BChE activity in brain tissues was done using a modified Karnovsky-Roots (KR) method. Tissue sections were first rinsed for 30 min in 0.1 M PB, followed by 30 min in 0.1 M PB with […] hydrogen peroxide (H2O2) and then rinsed for 30 min with 0.1 M maleate buffer (MB; pH 6.8 or […]) prior to incubation in the KR solution. Sections stained for AChE were incubated in the KR solution for 1.75 hr, while sections stained for BChE were incubated for 2.5 hr. The KR staining solution contained 0.5 mM sodium citrate, 0.47 mM cupric sulfate, and 0.05 mM of potassium ferricyanide, a thioester ChE substrate and ChE inhibitor in MB at pH 6.8 to stain for ChEs associated with AD pathology or pH 8.0 to stain for ChEs associated with normal neural elements. For AChE staining, ATChI (0.4 mM) was used as the substrate and ethopropazine (0.06 mM) was used to inhibit BChE. For BChE staining, BTChI (0.8 mM) was used as the substrate and BW 284c51 (0.01 mM) was used to inhibit AChE. Following incubation in KR, sections were rinsed in distilled water (dH2O) for 30 min, incubated in a 0.1% cobalt chloride solution in dH2O for 10 min, and rinsed again in dH20 for 30 min. Sections were incubated in 1.39 mM 3,3’-diaminobenzidine tetrahydrochloride (DAB) in PB (pH 7.4) for 5 min and then developed using 50 μL of 0.3% H2O2 per mL of DAB solution. The reaction was stopped by a 30 min rinse in 0.01 M acetate buffer (pH 3.3). Stained sections were mounted on glass slides, cover-slipped and examined with brightfield microscopy.
(§4) To evaluate the interactions of senolytic and nootropic compounds with ChEs in brain tissues, the above histochemical technique was used with minor variations to the KR incubation. Senolytic and nootropic compounds were dissolved in 50% aqueous acetonitrile to make a stock solution. […] Following incubation for AChE (1.75 hr) and BChE (2.5 hr) in the KR solution, staining was completed as described above.
(§5) Positive controls included staining for BChE and AChE activity at pH 6.8 and pH 8.0 without any additions. Negative controls were utilized to validate staining specificity of BChE and AChE at pH 6.8 and pH 8.0, where the substrates (BTChI and ATChI, respectively) were omitted, as previously described. […] Briefly, 50% aqueous acetonitrile was added to the KR solution, without any senolytic or nootropic compound, while maintaining the same volume as the compound additives.
(§6) A qualitative method was used to evaluate the effect of senolytic and nootropic compounds on ChE histochemical staining, as done previously. Inhibition of staining intensity was categorized as follows: No reduction (-), slight (x), moderate (xx), or strong (xxx). Tissue sections were analyzed using brightfield microscopy on an Olympus BX50F microscope (Olympus Optical Co., Ltd., Tokyo, Japan). Photomicrographs of the stained tissue sections were taken using a Zeiss Axio Scan.Z1 slide scanner with Zen 3.1 Blue Edition software (Carl Zeiss Canada Ltd., Toronto, Ontario, Canada). Figures were assembled using Adobe Photoshop (CS 5, Version 12.0, San Diego, CA, USA). The brightness of each individual image was adjusted to ensure backgrounds matched for analysis.

[3] = target: T4, BChE associated with β-amyloid plaques (Homo sapiens, UniProt P06276); experiment: Karnovsky-Roots histochemical staining, BChE associated with plaques (pH 6.8); format: biochemical; settings: for Inhibition of BChE staining associated with plaques (in words): pH 6.8, compared with control staining; for Inhibition of staining, BChE pH 6.8: plaques, AD orbitofrontal cortex, average ranking of four AD cases, compound 0.25-1.3 mM in KR solution
T4 construct: post-mortem brain tissues from sex- and age-matched AD cases; tissue Maritime Brain Tissue Bank, Dalhousie University; host or cells: post-mortem human AD brain: orbitofrontal cortex (plaques, pH 6.8) and thalamus (normal neural elements, pH 8.0)
Experimental: as §3, §4, §5, §6

[4] = target: T5, AChE associated with normal neural elements (Homo sapiens, UniProt P22303); experiment: Karnovsky-Roots histochemical staining, AChE associated with normal neural elements (pH 8.0); format: biochemical; settings: for Inhibition of staining, AChE pH 8.0: normal neural elements, AD thalamus, average ranking of four AD cases, compound 0.25-1.3 mM in KR solution; for Inhibition of AChE staining associated with normal neural elements (in words): pH 8.0, relative to controls
T5 construct: post-mortem brain tissues from sex- and age-matched AD cases; tissue Maritime Brain Tissue Bank, Dalhousie University; host or cells: post-mortem human AD brain: orbitofrontal cortex (plaques, pH 6.8) and thalamus (normal neural elements, pH 8.0)
Experimental: as §3, §4, §5, §6

[5] = target: T6, BChE associated with normal neural elements (Homo sapiens, UniProt P06276); experiment: Karnovsky-Roots histochemical staining, BChE associated with normal neural elements (pH 8.0); format: biochemical; settings: for Inhibition of staining, BChE pH 8.0: normal neural elements, AD thalamus, average ranking of four AD cases, compound 0.25-1.3 mM in KR solution; for Inhibition of BChE staining associated with normal neural elements (in words): pH 8.0, relative to controls
T6 construct: post-mortem brain tissues from sex- and age-matched AD cases; tissue Maritime Brain Tissue Bank, Dalhousie University; host or cells: post-mortem human AD brain: orbitofrontal cortex (plaques, pH 6.8) and thalamus (normal neural elements, pH 8.0)
Experimental: as §3, §4, §5, §6

[6] = system: ChE associated with plaques; settings: ref [37]; cited from earlier work
[7] = system: ChE associated with normal neural elements; settings: ref [37]; cited from earlier work
AChE = settings: ref Katalinić et al. [60]; read-out: Literature AChE Ki values; cited from earlier work
[8] = purified human serum BChE, BTChI substrate, pH 7.0, triplicate

T5 sequence (P22303 32-614): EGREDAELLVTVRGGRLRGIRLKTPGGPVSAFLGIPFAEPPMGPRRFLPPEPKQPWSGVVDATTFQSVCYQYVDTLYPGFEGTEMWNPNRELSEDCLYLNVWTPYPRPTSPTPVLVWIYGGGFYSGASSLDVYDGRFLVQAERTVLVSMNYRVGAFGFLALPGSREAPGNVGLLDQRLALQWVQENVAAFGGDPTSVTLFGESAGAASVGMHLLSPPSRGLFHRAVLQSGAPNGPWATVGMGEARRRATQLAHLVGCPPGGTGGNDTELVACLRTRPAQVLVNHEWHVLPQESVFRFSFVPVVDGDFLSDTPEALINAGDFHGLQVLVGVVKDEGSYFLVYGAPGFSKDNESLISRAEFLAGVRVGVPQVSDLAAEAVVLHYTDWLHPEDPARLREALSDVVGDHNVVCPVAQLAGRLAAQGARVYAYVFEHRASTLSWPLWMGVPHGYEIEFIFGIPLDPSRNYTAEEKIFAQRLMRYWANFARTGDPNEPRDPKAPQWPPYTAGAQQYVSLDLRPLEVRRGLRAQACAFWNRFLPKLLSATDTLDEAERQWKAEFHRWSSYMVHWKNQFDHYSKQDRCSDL
T3 sequence (P22303 32-614): as above
T1 sequence (P22303 32-614): as above
T2 sequence (P06276 29-602): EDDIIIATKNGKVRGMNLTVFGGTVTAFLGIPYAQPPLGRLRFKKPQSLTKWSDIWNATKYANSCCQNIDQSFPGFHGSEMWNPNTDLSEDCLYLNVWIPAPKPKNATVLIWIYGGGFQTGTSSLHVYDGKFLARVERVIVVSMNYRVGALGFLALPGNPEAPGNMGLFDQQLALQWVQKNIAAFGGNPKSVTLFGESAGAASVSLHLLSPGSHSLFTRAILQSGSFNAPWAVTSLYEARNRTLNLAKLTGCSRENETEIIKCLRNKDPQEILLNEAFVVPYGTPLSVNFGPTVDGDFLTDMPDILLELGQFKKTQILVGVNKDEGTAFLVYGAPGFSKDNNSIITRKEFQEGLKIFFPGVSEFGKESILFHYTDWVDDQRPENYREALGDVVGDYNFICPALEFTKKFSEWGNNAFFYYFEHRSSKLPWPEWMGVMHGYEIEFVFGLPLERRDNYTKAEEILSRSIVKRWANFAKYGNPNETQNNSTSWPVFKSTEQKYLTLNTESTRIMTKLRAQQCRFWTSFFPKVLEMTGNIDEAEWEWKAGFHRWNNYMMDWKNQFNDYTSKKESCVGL
T6 sequence (P06276 29-602): as above
T4 sequence (P06276 29-602): as above

Compound	pKi (recombinant human AChE)	AChE mode of inhibition (recombinant human AChE)	BChE mode of inhibition [1]	Inhibition of AChE staining associated with plaques (in words) [2]	Inhibition of BChE staining associated with plaques (in words) [3]	Inhibition of staining, AChE pH 8.0 [4]	Inhibition of AChE staining associated with normal neural elements (in words) [4]	Inhibition of staining, BChE pH 8.0 [5]	Inhibition of BChE staining associated with normal neural elements (in words) [5]	Inhibition of staining, AChE pH 6.8 [2]	Inhibition of staining, BChE pH 6.8 [3]	further results
O=c1c(O)c(-c2ccc(O)c(O)c2)oc2cc(O)cc(O)c12 [Quercetin (4), quercetin]	4.21	(Mixed Non-competitive)	(Mixed Non-competitive)	–	–	–	–	–	–	–	–	pKi (BChE; ref Katalinić et al. [60]): 4.17; pKi (BChE; ref Orhan et al. [87]): 4.33
CN(C)CCOC(=O)COc1ccc(Cl)cc1 [Meclofenoxate Hydrochloride (6), meclofenoxate hydrochloride]	4.20	(Mixed Non-competitive)	(Mixed Non-competitive)	moderate to strong inhibition	slight inhibition	- (– (no inhibition))	did not inhibit	- (– (no inhibition))	did not inhibit	–	–	–
COc1ccc2c3c1O[C@H]1C[C@@H](O)C=C[C@@]31CCN(C)C2 [galantamine]	–	–	–	–	–	–	–	–	–	–	–	Inhibition of ChE staining associated with plaques [6]: inhibits; Inhibition of ChE staining associated with normal neural elements [7]: inhibits
O=c1c(O)c(-c2ccc(O)c(O)c2)oc2cc(O)ccc12 [Fisetin (3), fisetin]	–	competitive inhibition	uncompetitive inhibition	–	–	–	–	–	–	–	–	pKi (recombinant human AChE; recombinant human AChE, ATChI substrate, pH 7.0, triplicate, read-out: Experimental AChE Ki): 3.96; pKi ([1]; purified human serum BChE, BTChI substrate, pH 7.0, triplicate, read-out: Experimental BChE Ki): 4.03; pKi (AChE): 4.00; pKi (BChE; ref Katalinić et al. [60]): 4.03
Cc1nc(Nc2ncc(C(=O)Nc3c(C)cccc3Cl)s2)cc(N2CCN(CCO)CC2)n1 [Dasatinib (1), dasatinib]	4.55	(Mixed Non-competitive)	(Mixed Non-competitive)	reduced by varying degrees	complete inhibition	- (– (no inhibition))	no inhibition	- (– (no inhibition))	no inhibition	xx/x^a	xxx (xxx (strong inhibition))	–
COc1ccc(COc2ccc(Cc3cnc(N)nc3N)cc2OC)cc1 [GW2580 (5), GW2580]	4.15	(Mixed Non-competitive)	–	did not inhibit	did inhibit	- (– (no inhibition))	did not inhibit	- (– (no inhibition))	did not inhibit	- (– (no inhibition))	x/xx	Experimental BChE Ki [1, 8]: No Inhibition; Experimental BChE Ki ([1]; purified human serum BChE, BTChI substrate, pH 7.0, triplicate, listed as 5): did not inhibit
COC(=O)c1ccc2c(c1)NC(=O)/C2=C(\Nc1ccc(N(C)C(=O)CN2CCN(C)CC2)cc1)c1ccccc1 [Nintedanib (2), nintedanib]	5.15	(Mixed Non-competitive)	–	complete inhibition	complete inhibition	- (– (no inhibition))	no inhibition	- (– (no inhibition))	no inhibition	xxx (xxx (strong inhibition))	xxx (xxx (strong inhibition))	Experimental BChE Ki [1, 8]: No Inhibition; Experimental BChE Ki ([1]; purified human serum BChE, BTChI substrate, pH 7.0, triplicate, listed as 2): did not inhibit
